# Experimental data from patent US10168342B2, “Lipid probes and uses thereof” (THE SCRIPPS RESEARCH INSTITUTE, priority 2015, dated 2019).
# Columns and labels:
# Assay in all cases: In situ competitive SILAC profiling with A-DA probe in (PMA-stimulated) A549 cells
# Details in all cases: A549 cells, A-DA probe
# [1] = molecular target: T1, A-DA lipid probe targets in A549 cells (Homo sapiens, UniProt O95470)
# T1 sequence (O95470 1-568): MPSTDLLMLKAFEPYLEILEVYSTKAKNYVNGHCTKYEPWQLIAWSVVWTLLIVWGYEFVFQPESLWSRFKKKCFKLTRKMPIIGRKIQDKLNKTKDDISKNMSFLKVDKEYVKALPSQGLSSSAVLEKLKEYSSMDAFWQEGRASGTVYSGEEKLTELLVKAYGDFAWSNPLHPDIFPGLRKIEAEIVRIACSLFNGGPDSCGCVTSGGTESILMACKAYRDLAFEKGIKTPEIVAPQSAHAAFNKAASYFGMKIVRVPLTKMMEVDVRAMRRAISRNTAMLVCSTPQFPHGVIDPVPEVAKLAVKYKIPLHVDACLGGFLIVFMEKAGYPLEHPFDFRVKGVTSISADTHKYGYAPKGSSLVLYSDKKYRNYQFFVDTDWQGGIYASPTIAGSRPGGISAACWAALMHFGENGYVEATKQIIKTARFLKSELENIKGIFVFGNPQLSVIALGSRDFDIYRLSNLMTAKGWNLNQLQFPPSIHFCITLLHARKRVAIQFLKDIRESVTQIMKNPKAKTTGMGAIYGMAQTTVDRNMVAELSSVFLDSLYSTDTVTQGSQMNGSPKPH
# [2] = molecular target: T2, A-DA lipid probe targets in A549 cells (Homo sapiens, UniProt P35354)
# T2 sequence (P35354 18-604): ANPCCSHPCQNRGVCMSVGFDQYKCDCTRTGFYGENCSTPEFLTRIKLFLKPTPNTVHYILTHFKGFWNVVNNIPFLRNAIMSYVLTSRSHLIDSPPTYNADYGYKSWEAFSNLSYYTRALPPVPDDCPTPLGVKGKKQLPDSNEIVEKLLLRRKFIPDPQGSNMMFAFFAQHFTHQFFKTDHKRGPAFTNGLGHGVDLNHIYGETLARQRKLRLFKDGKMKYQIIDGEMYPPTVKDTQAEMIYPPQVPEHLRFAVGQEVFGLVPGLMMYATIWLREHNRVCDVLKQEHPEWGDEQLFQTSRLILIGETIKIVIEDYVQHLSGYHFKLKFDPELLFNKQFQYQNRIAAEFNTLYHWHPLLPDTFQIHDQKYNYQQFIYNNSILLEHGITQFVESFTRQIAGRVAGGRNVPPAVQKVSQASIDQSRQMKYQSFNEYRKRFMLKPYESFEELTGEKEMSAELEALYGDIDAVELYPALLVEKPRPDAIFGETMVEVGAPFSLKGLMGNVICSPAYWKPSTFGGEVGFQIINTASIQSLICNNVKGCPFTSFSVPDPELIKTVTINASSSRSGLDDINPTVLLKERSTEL
# [3] = molecular target: T3, A-DA lipid probe targets in A549 cells (Homo sapiens, UniProt Q96G23)
# T3 sequence (Q96G23 1-380): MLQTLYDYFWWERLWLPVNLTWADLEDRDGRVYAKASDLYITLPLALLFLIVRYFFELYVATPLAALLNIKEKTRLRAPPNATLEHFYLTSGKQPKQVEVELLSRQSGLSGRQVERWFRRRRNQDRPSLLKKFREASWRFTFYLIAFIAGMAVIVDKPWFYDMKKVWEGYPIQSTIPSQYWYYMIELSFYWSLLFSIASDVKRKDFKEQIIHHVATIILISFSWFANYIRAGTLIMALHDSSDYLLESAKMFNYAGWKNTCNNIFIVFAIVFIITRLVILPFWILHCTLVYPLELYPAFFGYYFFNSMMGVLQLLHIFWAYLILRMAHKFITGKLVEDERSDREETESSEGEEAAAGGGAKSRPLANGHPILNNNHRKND
# [4] = molecular target: T4, A-DA lipid probe targets in A549 cells (Homo sapiens, UniProt P45880)
# T4 sequence (P45880 1-294): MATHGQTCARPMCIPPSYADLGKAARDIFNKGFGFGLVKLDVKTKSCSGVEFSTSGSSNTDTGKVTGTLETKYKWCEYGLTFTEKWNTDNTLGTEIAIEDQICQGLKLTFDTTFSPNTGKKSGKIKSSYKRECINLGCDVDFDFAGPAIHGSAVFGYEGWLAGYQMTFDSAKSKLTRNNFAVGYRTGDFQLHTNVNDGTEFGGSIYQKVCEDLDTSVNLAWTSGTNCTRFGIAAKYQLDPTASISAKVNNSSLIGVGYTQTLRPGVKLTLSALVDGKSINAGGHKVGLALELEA
# [5] = molecular target: A-DA lipid probe targets in A549 cells (Homo sapiens, UniProt Q9NX47)
# Sequence of A-DA lipid probe targets in A549 cells (Homo sapiens, UniProt Q9NX47) (Q9NX47 whole entry): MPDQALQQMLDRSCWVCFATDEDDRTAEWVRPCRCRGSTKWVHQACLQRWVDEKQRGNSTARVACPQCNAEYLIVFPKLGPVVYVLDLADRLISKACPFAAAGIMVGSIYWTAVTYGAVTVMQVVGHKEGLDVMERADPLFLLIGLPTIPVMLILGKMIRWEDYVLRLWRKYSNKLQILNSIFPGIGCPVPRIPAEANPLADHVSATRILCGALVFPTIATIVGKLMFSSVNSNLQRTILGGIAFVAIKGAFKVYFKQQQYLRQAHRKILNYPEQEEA
# [6] = molecular target: T5, A-DA lipid probe targets in A549 cells (Homo sapiens, UniProt Q9NS69)
# T5 sequence (Q9NS69 1-142): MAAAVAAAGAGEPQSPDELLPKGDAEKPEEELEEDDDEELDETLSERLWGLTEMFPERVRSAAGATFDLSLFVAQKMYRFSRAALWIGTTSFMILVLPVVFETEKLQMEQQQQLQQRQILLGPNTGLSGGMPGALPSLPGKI
structure (smiles),measurement,setting,value
"O=C(/C=C/c1cccnc1)NCCCCC1CCN(C(=O)c2ccccc2)CC1 [FK-866, reference compound]","SILAC ratio, SGPL1 (O95470)",[1]; competitor 25 μM,1.2
same,"SILAC ratio, PTGS2 (P35354)",[2]; competitor 25 μM,1.9
same,"SILAC ratio, CERS2 (Q924Z4)",[3]; competitor 25 μM,1.4
same,"SILAC ratio, VDAC2 (P45880)",[4]; competitor 25 μM,1.2
same,"SILAC ratio, MARCH5 (Q3KNM2)",[5]; competitor 25 μM,1.3
same,"SILAC ratio, TOMM22 (Q9CPQ3)",[6]; competitor 25 μM,1.3
C=CCN(C)CCCCCCOc1ccc(C(=O)c2ccc(Br)cc2)c(F)c1 [Ro488071],"SILAC ratio, SGPL1 (O95470)",[1]; competitor 5 μM,1.5
same,"SILAC ratio, SGPL1 (O95470)",[1]; competitor 50 μM,3.0
same,"SILAC ratio, PTGS2 (P35354)",[2]; competitor 5 μM,2.5
same,"SILAC ratio, PTGS2 (P35354)",[2]; competitor 50 μM,3.3
same,"SILAC ratio, CERS2 (Q924Z4)",[3]; competitor 5 μM,1.5
same,"SILAC ratio, CERS2 (Q924Z4)",[3]; competitor 50 μM,2.5
same,"SILAC ratio, VDAC2 (P45880)",[4]; competitor 5 μM,1.5
same,"SILAC ratio, VDAC2 (P45880)",[4]; competitor 50 μM,3.4
same,"SILAC ratio, MARCH5 (Q3KNM2)",[5]; competitor 5 μM,1.2
same,"SILAC ratio, TOMM22 (Q9CPQ3)",[6]; competitor 5 μM,1.4
same,"SILAC ratio, TOMM22 (Q9CPQ3)",[6]; competitor 50 μM,1.4
